Experimental data as given in patent US20240336608A1, “IL4I1 INHIBITORS AND METHODS OF USE” (Merck Sharp & Dohme LLC, priority 2023, published 2024).

Target: T1, recombinant IL4I1 (Homo sapiens, UniProt Q96RQ9)
T1 construct: purchased R&D Systems 5684-AO-020
T1 sequence (Q96RQ9 22-567): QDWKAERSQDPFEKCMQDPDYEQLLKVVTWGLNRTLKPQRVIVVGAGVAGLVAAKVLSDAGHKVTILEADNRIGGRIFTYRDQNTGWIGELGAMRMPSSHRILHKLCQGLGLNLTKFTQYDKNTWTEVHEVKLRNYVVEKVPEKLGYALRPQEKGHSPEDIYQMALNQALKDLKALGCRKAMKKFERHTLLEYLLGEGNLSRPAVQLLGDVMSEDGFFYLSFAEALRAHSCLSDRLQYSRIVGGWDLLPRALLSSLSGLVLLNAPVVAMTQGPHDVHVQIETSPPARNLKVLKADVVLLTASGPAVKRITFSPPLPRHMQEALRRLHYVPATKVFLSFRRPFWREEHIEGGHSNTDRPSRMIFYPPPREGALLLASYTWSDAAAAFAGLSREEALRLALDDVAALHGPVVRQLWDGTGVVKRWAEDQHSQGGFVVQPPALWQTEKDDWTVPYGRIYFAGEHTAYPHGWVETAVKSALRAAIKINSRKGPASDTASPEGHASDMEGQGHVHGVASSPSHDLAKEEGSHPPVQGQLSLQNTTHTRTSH
Assay: IL4I1 Enzymatic Assay (Amplex Red/HRP coupled detection of H2O2, fluorescence)
Type: biochemical
Settings: 1 nM recombinant IL4I1; four-hour pre-incubation with compound; 1 mM each Phe, Tyr, Trp; ten-point titration
Outline: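 H2O2 output was coupled to resorufin fluorescence (ex 544/em 590) via 0.05 mM Amplex Red and 1 U/mL HRP. Substrate: Phe, Tyr, Trp at 1 mM each; enzyme 1 nM, 4 h compound pre-incubation, 120 min reaction, pH 7.0 Hepes. EC50 by nonlinear four-parameter regression, 1:3 ten-point titration.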

SMILES | EC50 [nM]
O=C(NCc1nnc(-c2ccccc2)s1)c1cc(C2CC2)n[nH]1 [Example 33, 3-cyclopropyl-N-[(5-phenyl-1,3,4-thiadiazol-2-yl)methyl]-1H-pyrazole-5-carboxamide] | 170
O=C(NCc1nnc(-c2ccccc2)s1)c1cc2n(n1)CCSC2 [Example 34, N-[(5-phenyl-1,3,4-thiadiazol-2-yl)methyl]-6,7-dihydro-4H-pyrazolo[5,1-c][1,4]thiazine-2-carboxamide] | 453
Cc1cc(C(=O)NCc2nnc(-c3ccccc3)s2)c(C)o1 [Example 36, 2,5-dimethyl-N-[(5-phenyl-1,3,4-thiadiazol-2-yl)methyl]furan-3-carboxamide] | 487
Cc1cc(C(=O)NCc2nnc(-c3ccccc3)s2)oc1C [Example 38, 4,5-dimethyl-N-[(5-phenyl-1,3,4-thiadiazol-2-yl)methyl]furan-2-carboxamide] | 890
Cc1oc(C)c(C(=O)NCc2nnc(-c3ccccc3)s2)c1C [Example 40, 2,4,5-trimethyl-N-[(5-phenyl-1,3,4-thiadiazol-2-yl)methyl]furan-3-carboxamide] | 266
COc1c(C(=O)NCc2nnc(-c3ccccc3)s2)csc1Cl [Example 41, 5-chloro-4-methoxy-N-[(5-phenyl-1,3,4-thiadiazol-2-yl)methyl]thiophene-3-carboxamide] | 59
Cc1n[nH]c(C(=O)NCc2nnc(-c3ccccc3)s2)c1C [Example 42, 3,4-dimethyl-N-((5-phenyl-1,3,4-thiadiazol-2-yl)methyl)-1H-pyrazole-5-carboxamide] | 458
CCn1cc(C(=O)NCc2nnc(-c3ccccc3)s2)cn1 [Example 43, 1-ethyl-N-[(5-phenyl-1,3,4-thiadiazol-2-yl)methyl]pyrazole-4-carboxamide] | 177
O=C(NCc1nnc(-c2ccccc2)s1)c1c[nH]nc1C(F)(F)F [Example 44, N-[(5-phenyl-1,3,4-thiadiazol-2-yl)methyl]-3-(trifluoromethyl)-1H-pyrazole-4-carboxamide] | 770
COCc1ccc(C(=O)NCc2nnc(-c3ccccc3)s2)o1 [Example 45, 5-(methoxymethyl)-N-[(5-phenyl-1,3,4-thiadiazol-2-yl)methyl]furan-2-carboxamide] | 552
Cc1[nH]nc(C(=O)NCc2nnc(-c3ccccc3)s2)c1F [Example 46, 4-fluoro-5-methyl-N-[(5-phenyl-1,3,4-thiadiazol-2-yl)methyl]-1H-pyrazole-3-carboxamide] | 92
CCc1[nH]nc(C(=O)NCc2nnc(-c3ccccc3)s2)c1C [Example 47, 5-ethyl-4-methyl-N-((5-phenyl-1,3,4-thiadiazol-2-yl)methyl)-1H-pyrazole-3-carboxamide] | 155
O=C(NCc1nnc(-c2ccccc2)s1)c1cc2n(n1)CCC2 [Example 48, N-[(5-phenyl-1,3,4-thiadiazol-2-yl)methyl]-5,6-dihydro-4H-pyrrolo[1,2-b]pyrazole-2-carboxamide] | 237
CC(C)c1cc(C(=O)NCc2nnc(-c3ccccc3)s2)on1 [Example 49, 3-isopropyl-N-[(5-phenyl-1,3,4-thiadiazol-2-yl)methyl]isoxazole-5-carboxamide] | 22
Cc1cc(C(=O)NCc2nnc(-c3ccccc3)s2)c(C)n1C [Example 50, 1,2,5-trimethyl-N-[(5-phenyl-1,3,4-thiadiazol-2-yl)methyl]pyrrole-3-carboxamide] | 537
Cn1ccc(C(=O)NCc2nnc(-c3ccccc3)s2)c1 [Example 51, 1-methyl-N-[(5-phenyl-1,3,4-thiadiazol-2-yl)methyl]pyrrole-3-carboxamide] | 118
CCn1ccc(C(=O)NCc2nnc(-c3ccccc3)s2)n1 [Example 52, 1-ethyl-N-[(5-phenyl-1,3,4-thiadiazol-2-yl)methyl]pyrazole-3-carboxamide] | 128
Cc1c(C(=O)NCc2nnc(-c3ccccc3)s2)oc2ccccc12 [Example 53, 3-methyl-N-[(5-phenyl-1,3,4-thiadiazol-2-yl)methyl]benzofuran-2-carboxamide] | 357
Cn1c(C(=O)NCc2nnc(-c3ccccc3)s2)cc2ccccc21 [Example 54, 1-methyl-N-((5-phenyl-1,3,4-thiadiazol-2-yl)methyl)-1H-indole-2-carboxamide] | 322
Cc1nonc1C(=O)NCc1nnc(-c2ccccc2)s1 [Example 55, 4-methyl-N-[(5-phenyl-1,3,4-thiadiazol-2-yl)methyl]-1,2,5-oxadiazole-3-carboxamide] | 276
O=C(NCc1nnc(-c2ccccc2)s1)c1cc2c(o1)CCNC2=O [Example 56, 4-oxo-N-[(5-phenyl-1,3,4-thiadiazol-2-yl)methyl]-6,7-dihydro-5H-furo[3,2-c]pyridine-2-carboxamide] | 234
Cc1cc(C)c(C(=O)NCc2nnc(-c3ccccc3)s2)o1 [Example 57, 3,5-dimethyl-N-[(5-phenyl-1,3,4-thiadiazol-2-yl)methyl]furan-2-carboxamide] | 974
COc1cc(C(=O)NCc2nnc(-c3ccccc3)s2)on1 [Example 58, 3-methoxy-N-[(5-phenyl-1,3,4-thiadiazol-2-yl)methyl]isoxazole-5-carboxamide] | 92
O=C(NCc1nnc(-c2ccccc2)s1)c1cn(C2CC(F)(F)C2)nn1 [Example 61, 1-(3,3-difluorocyclobutyl)-N-((5-phenyl-1,3,4-thiadiazol-2-yl)methyl)-1H-1,2,3-triazole-4-carboxamide] | 68
COCC[C@@H](C)n1cc(C(=O)NCc2nnc(-c3ccccc3)s2)nn1 [Example 65, (R)-1-(4-methoxybutan-2-yl)-N-((5-phenyl-1,3,4-thiadiazol-2-yl)methyl)-1H-1,2,3-triazole-4-carboxamide] | 68
COCC[C@H](C)n1cc(C(=O)NCc2nnc(-c3ccccc3)s2)nn1 [Example 66, (S)-1-(4-methoxybutan-2-yl)-N-((5-phenyl-1,3,4-thiadiazol-2-yl)methyl)-1H-1,2,3-triazole-4-carboxamide] | 221

The next compounds have a lower EC50 than those just listed; values first:

EC50 [nM] | SMILES
8 | O=C(NCc1nnc(-c2ccccc2)s1)c1cc(C2CC2)on1 [Example 35, 5-cyclopropyl-N-[(5-phenyl-1,3,4-thiadiazol-2-yl)methyl]isoxazole-3-carboxamide]
12 | Cc1csc(C(=O)NCc2nnc(-c3ccccc3)s2)c1Cl [Example 37, 3-chloro-4-methyl-N-[(5-phenyl-1,3,4-thiadiazol-2-yl)methyl]thiophene-2-carboxamide]
3 | CCCc1cc(C(=O)NCc2nnc(-c3ccccc3)s2)no1 [Example 39, N-[(5-phenyl-1,3,4-thiadiazol-2-yl)methyl]-5-propyl-isoxazole-3-carboxamide]
4 | O=C(NCc1nnc(-c2ccccc2)s1)c1cn(CC(F)(F)F)nn1 [Example 60, N-((5-phenyl-1,3,4-thiadiazol-2-yl)methyl)-1-(2,2,2-trifluoroethyl)-1H-1,2,3-triazole-4-carboxamide]
7 | O=C(NCc1nnc(-c2ccccc2)s1)c1cn(CCC(F)(F)F)nn1 [Example 62, N-((5-phenyl-1,3,4-thiadiazol-2-yl)methyl)-1-(3,3,3-trifluoropropyl)-1H-1,2,3-triazole-4-carboxamide]
14 | O=C(NCc1nnc(-c2ccccc2)s1)c1cn(C2COC2)nn1 [Example 67, 1-(oxetan-3-yl)-N-((5-phenyl-1,3,4-thiadiazol-2-yl)methyl)-1H-1,2,3-triazole-4-carboxamide]
17 | O=C(NCc1nnc(-c2ccccc2)s1)c1cn(C2CCC2)nn1 [Example 68, 1-cyclobutyl-N-((5-phenyl-1,3,4-thiadiazol-2-yl)methyl)-1H-1,2,3-triazole-4-carboxamide]
9 | CC(C)(C)OC(=O)N1CC(n2cc(C(=O)NCc3nnc(-c4ccccc4)s3)nn2)C1 [Example 69, tert-butyl 3-(4-(((5-phenyl-1,3,4-thiadiazol-2-yl)methyl)carbamoyl)-1H-1,2,3-triazol-1-yl)azetidine-1-carboxylate]
5 | NC(=O)Cn1cc(C(=O)NCc2nnc(-c3ccccc3)s2)nn1 [Example 70, 1-(2-amino-2-oxoethyl)-N-((5-phenyl-1,3,4-thiadiazol-2-yl)methyl)-1H-1,2,3-triazole-4-carboxamide]
11 | N#CCCn1cc(C(=O)NCc2nnc(-c3ccccc3)s2)nn1 [Example 71, 1-(2-cyanoethyl)-N-((5-phenyl-1,3,4-thiadiazol-2-yl)methyl)-1H-1,2,3-triazole-4-carboxamide]
3 | CCn1cc(C(=O)NCc2nnc(-c3ccccc3)s2)nn1 [Example 72, 1-ethyl-N-((5-phenyl-1,3,4-thiadiazol-2-yl)methyl)-1H-1,2,3-triazole-4-carboxamide]
9 | CC(C#N)n1cc(C(=O)NCc2nnc(-c3ccccc3)s2)nn1 (centres unmarked) [Example 73, 1-(1-cyanoethyl)-N-((5-phenyl-1,3,4-thiadiazol-2-yl)methyl)-1H-1,2,3-triazole-4-carboxamide]
